The source of these data is patent publication US12071404B2, “Aza (indole)-, benzothiophene-, and benzofuran-3-sulfonamides” (UCB Pharma GmbH, priority 2016, dated 2024).

Molecules are shown by their SMILES. Some results are limits rather than exact numbers.

The target in test [1] is T1, GPR17 (Homo sapiens, UniProt Q13304). The experiment in a line: cAMP accumulation functional assay (HTRF, Schild analysis). The format is cell-based. More on the design: host or cells: Flp-In T-REx CHO. To be noted: CHO hGPR17 cells, Schild analysis vs MDL29,951, 5 μM forskolin, read-out: cAMP assay pA2 (converted). The essentials:
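CHO Flp-In T-REx cells with doxycycline-induced human GPR17 were preincubated 30 min at room temperature in HBSS-HEPES pH 7.4 with antagonist. cAMP was then measured by HTRF after 60 min. MDL29,951 pEC50 shifts gave dose ratios, and Schild analysis gave pA2.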
In general terms: Changes in cAMP serve as a functional read-out for many G protein-coupled receptors.

Test [2] concerns the target T1, GPR17. The test is described as follows: Calcium mobilization functional assay (GPR17 Ca2+ assay). Further details: host or cells: Flp-In T-REx CHO. To be noted: CHO hGPR17 cells, inhibition of 50 nM MDL29,951, Calcium 5 dye, FLIPR; read-out: Ca2+ assay pIC50 (converted). The format is cell-based. The essentials: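 Flp-In T-REx CHO cells stably expressing human GPR17, doxycycline-induced (1 μg/mL, 16-20 h), loaded 60 min with Calcium 5 dye. Inhibition by varying test-compound concentrations of the 50 nM MDL29,951 agonist response was read by fluorescence over time at room temperature. pIC50 came from 4-parameter logistic fitting.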

T1 sequence (Q13304 whole entry): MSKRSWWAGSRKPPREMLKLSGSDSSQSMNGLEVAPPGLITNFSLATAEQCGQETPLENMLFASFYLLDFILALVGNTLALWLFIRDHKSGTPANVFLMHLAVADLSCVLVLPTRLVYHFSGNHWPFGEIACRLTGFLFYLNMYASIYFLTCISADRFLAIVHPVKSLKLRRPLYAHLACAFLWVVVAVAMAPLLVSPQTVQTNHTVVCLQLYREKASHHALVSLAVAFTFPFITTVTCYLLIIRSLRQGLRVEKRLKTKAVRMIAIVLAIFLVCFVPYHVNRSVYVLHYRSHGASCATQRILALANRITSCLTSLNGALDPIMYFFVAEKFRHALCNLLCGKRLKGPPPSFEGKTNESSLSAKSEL

For the compound `N#Cc1ccc(NS(=O)(=O)c2c[nH]c3cc(OCC(F)(F)F)ccc23)c(F)c1` [Compound I-294, N-(4-cyano-2-fluorophenyl)-6-(2,2,2-trifluoroethoxy)-1H-indole-3-sulfonamide], at GPR17 [1], the Kb was 3.16 to 31.6 nM. The IC50 on GPR17 [2] was 3.16 to 31.6 nM.

As for `O=S(=O)(Nc1ccc(S(F)(F)(F)(F)F)cc1F)c1c[nH]c2nc(Cl)ccc12` [Compound I-295, 6-chloro-N-[2-fluoro-4-(pentafluoro-lambda-6-sulfanyl)phenyl]-1H-pyrrolo[2,3-b]pyridine-3-sulfonamide], the Kb on GPR17 [1] is 3.16 to 31.6 nM. For the same compound, at GPR17 [2], the IC50 is 3.16 to 31.6 nM.

With `O=S(=O)(Nc1ccc(C(F)(F)F)cc1F)c1c[nH]c2nc(Cl)ccc12` [Compound I-296, 6-chloro-N-[2-fluoro-4-(trifluoromethyl)phenyl]-1H-pyrrolo[2,3-b]pyridine-3-sulfonamide], the Kb at GPR17 [1] is 3.16 to 31.6 nM. Besides, on GPR17 [2], the IC50 was 3.16 to 31.6 nM.

In the case of `O=S(=O)(Nc1ncc(C(F)(F)F)cc1F)c1c[nH]c2cc(Cl)ccc12` [Compound I-297, 6-chloro-N-[3-fluoro-5-(trifluoromethyl)pyridin-2-yl]-1H-indole-3-sulfonamide], on GPR17 [1], the Kb is under 3.16 nM. Moreover, the IC50 at GPR17 [2] is 3.16 to 31.6 nM.

Take `COc1cc(F)c(NS(=O)(=O)c2c[nH]c3cc(Cl)ccc23)cc1F` [Compound I-298, 6-chloro-N-(2,5-difluoro-4-methoxyphenyl)-1H-indole-3-sulfonamide]: the Kb at GPR17 [1] was 3.16 to 31.6 nM. Further, the IC50 at GPR17 [2] was 3.16 to 31.6 nM.

Consider `O=S(=O)(Nc1ccc(C(F)(F)F)cc1F)c1c[nH]c2cc(Cl)ccc12` [Compound I-299, 6-chloro-N-[2-fluoro-4-(trifluoromethyl)phenyl]-1H-indole-3-sulfonamide], for which, at GPR17 [1], the Kb is under 3.16 nM. The IC50 on GPR17 [2] was 3.16 to 31.6 nM.

For `O=S(=O)(Nc1cc(F)c(Cl)cc1F)c1c[nH]c2cc(OCC(F)(F)F)ccc12` [Compound I-300, N-(4-chloro-2,5-difluorophenyl)-6-(2,2,2-trifluoroethoxy)-1H-indole-3-sulfonamide], at GPR17 [1], the Kb was 3.16 to 31.6 nM. For the same compound, at GPR17 [2], the IC50 is 3.16 to 31.6 nM.

As for `O=c1[nH]c2cccc(NS(=O)(=O)c3c[nH]c4cc(Cl)ccc34)c2o1` [Compound I-301, 6-chloro-N-(2-oxo-2,3-dihydro-1,3-benzoxazol-7-yl)-1H-indole-3-sulfonamide], the Kb at GPR17 [1] is 3.16 to 31.6 nM. The IC50 on GPR17 [2] is 3.16 to 31.6 nM.

For `O=S(=O)(Nc1ncc(F)cc1F)c1c[nH]c2cc(Cl)ccc12` [Compound I-302, 6-chloro-N-(3,5-difluoropyridin-2-yl)-1H-indole-3-sulfonamide], the Kb at GPR17 [1] was 3.16 to 31.6 nM. Moreover, the IC50 on GPR17 [2] was 3.16 to 31.6 nM.

As to `O=S(=O)(Nc1cc(F)c(C(F)(F)F)cc1F)c1c[nH]c2nc(Cl)ccc12` [Compound I-303, 6-chloro-N-[2,5-difluoro-4-(trifluoromethyl)phenyl]-1H-pyrrolo[2,3-b]pyridine-3-sulfonamide], the Kb on GPR17 [1] is under 3.16 nM. On GPR17 [2], the IC50 is under 3.16 nM.

In the case of `O=S(=O)(Nc1nc(F)c(Cl)cc1F)c1c[nH]c2c1ccc1ccccc12` [Compound I-304, N-(5-chloro-3,6-difluoropyridin-2-yl)-1H-benzo[g]indole-3-sulfonamide], the Kb at GPR17 [1] was under 3.16 nM. Moreover, on GPR17 [2], the IC50 is under 3.16 nM.

Consider `O=S(=O)(Nc1cc(F)c(Br)cc1F)c1c[nH]c2c1ccc1cccnc12` [Compound I-305, N-(4-bromo-2,5-difluorophenyl)-1H-pyrrolo[3,2-h]quinoline-3-sulfonamide], for which the Kb at GPR17 [1] was under 3.16 nM. In addition, the IC50 at GPR17 [2] was under 3.16 nM.

With `C#Cc1ccc(NS(=O)(=O)c2c[nH]c3c2ccc2cccnc23)c(F)c1` [Compound I-306, N-(4-ethynyl-2-fluorophenyl)-1H-pyrrolo[3,2-h]quinoline-3-sulfonamide], at GPR17 [1], the Kb was under 3.16 nM. Moreover, on GPR17 [2], the IC50 is 3.16 to 31.6 nM.

`O=S(=O)(Nc1nc(F)c(Cl)cc1F)c1c[nH]c2nc(Cl)ccc12` [Compound I-307, 6-chloro-N-(5-chloro-3,6-difluoropyridin-2-yl)-1H-pyrrolo[2,3-b]pyridine-3-sulfonamide]: at GPR17 [1], the Kb is 3.16 to 31.6 nM. The IC50 on GPR17 [2] was 3.16 to 31.6 nM.

In the case of `O=S(=O)(Nc1cc(F)c(I)cc1F)c1c[nH]c2cc(Cl)ccc12` [Compound I-308, 6-chloro-N-(2,5-difluoro-4-iodophenyl)-1H-indole-3-sulfonamide], the Kb on GPR17 [1] was under 3.16 nM. Also, the IC50 at GPR17 [2] is under 3.16 nM.

In the case of `COc1nc(NS(=O)(=O)c2c[nH]c3c(OC)c(Cl)ccc23)c(F)cc1Cl` [Compound I-309, 6-chloro-N-(5-chloro-3-fluoro-6-methoxypyridin-2-yl)-7-methoxy-1H-indole-3-sulfonamide], the Kb on GPR17 [1] is under 3.16 nM. Besides, on GPR17 [2], the IC50 was under 3.16 nM.

As for `COc1c(Cl)ccc2c(S(=O)(=O)Nc3nc(F)c(Cl)cc3F)c[nH]c12` [Compound I-310, 6-chloro-N-(5-chloro-3,6-difluoropyridin-2-yl)-7-methoxy-1H-indole-3-sulfonamide], the Kb on GPR17 [1] was under 3.16 nM. Further, at GPR17 [2], the IC50 was under 3.16 nM.

As to `N#Cc1ccc(NS(=O)(=O)c2csc3cc(Cl)ccc23)cc1` [Compound I-311, 6-chloro-N-(4-cyanophenyl)-1-benzothiophene-3-sulfonamide], on GPR17 [1], the Kb was 3.16 to 31.6 nM. Further, the IC50 at GPR17 [2] is 3.16 to 31.6 nM.

With `O=S(=O)(Nc1cc(F)c(Cl)cc1F)c1csc2cc(Cl)ccc12` [Compound I-312, 6-chloro-N-(4-chloro-2,5-difluorophenyl)-1-benzothiophene-3-sulfonamide], at GPR17 [1], the Kb is 3.16 to 31.6 nM. Moreover, the IC50 on GPR17 [2] is 3.16 to 31.6 nM.

Take `N#CCOc1cc(F)c(NS(=O)(=O)c2csc3cc(Cl)ccc23)cc1F` [Compound I-313, 6-chloro-N-[4-(cyanomethoxy)-2,5-difluorophenyl]-1-benzothiophene-3-sulfonamide]: the Kb on GPR17 [1] is 3.16 to 31.6 nM. Also, the IC50 at GPR17 [2] is 3.16 to 31.6 nM.

`COc1nc(NS(=O)(=O)c2csc3cc(Cl)ccc23)c(F)cc1Cl` [Compound I-314, 6-chloro-N-(5-chloro-3-fluoro-6-methoxypyridin-2-yl)-1-benzothiophene-3-sulfonamide]: on GPR17 [1], the Kb is 3.16 to 31.6 nM. In addition, the IC50 on GPR17 [2] is 3.16 to 31.6 nM.

As to `COc1nc(NS(=O)(=O)c2csc3cc(Cl)ccc23)c(F)cc1CC#N` [Compound I-315, 6-chloro-N-[5-(cyanomethyl)-3-fluoro-6-methoxypyridin-2-yl]-1-benzothiophene-3-sulfonamide], on GPR17 [1], the Kb is under 3.16 nM. Also, the IC50 at GPR17 [2] was under 3.16 nM.

As for `O=S(=O)(Nc1nc(F)c(Cl)cc1F)c1c[nH]c2c1ccc1cccnc12` [Compound I-316, N-(5-chloro-3,6-difluoropyridin-2-yl)-1H-pyrrolo[3,2-h]quinoline-3-sulfonamide], at GPR17 [1], the Kb is 3.16 to 31.6 nM. For the same compound, the IC50 at GPR17 [2] is 3.16 to 31.6 nM.

Regarding `O=S(=O)(Nc1nc(F)c(Cl)cc1F)c1c[nH]c2c3c(ccc12)CCC3` [Compound I-317, N-(5-chloro-3,6-difluoropyridin-2-yl)-1,6,7,8-tetrahydrocyclopenta[g]indole-3-sulfonamide], the Kb on GPR17 [1] was 3.16 to 31.6 nM. The IC50 on GPR17 [2] was 3.16 to 31.6 nM.

Take `COc1ccc2c(S(=O)(=O)Nc3cc(F)c(Cl)cc3F)c(F)[nH]c2c1` [Compound I-318, N-(4-chloro-2,5-difluorophenyl)-2-fluoro-6-methoxy-1H-indole-3-sulfonamide]: the Kb on GPR17 [1] is 3.16 to 31.6 nM. The IC50 at GPR17 [2] was 3.16 to 31.6 nM.

As to `COc1nc(NS(=O)(=O)c2c[nH]c3c(F)c(Cl)ccc23)c(F)cc1Cl` [Compound I-319, 6-chloro-N-(5-chloro-3-fluoro-6-methoxypyridin-2-yl)-7-fluoro-1H-indole-3-sulfonamide], on GPR17 [1], the Kb was under 3.16 nM. For the same compound, the IC50 at GPR17 [2] was under 3.16 nM.

For the compound `COc1nc(NS(=O)(=O)c2c[nH]c3c(Br)c(Cl)ccc23)c(F)cc1Cl` [Compound I-321, 7-bromo-6-chloro-N-(5-chloro-3-fluoro-6-methoxypyridin-2-yl)-1H-indole-3-sulfonamide], the Kb on GPR17 [1] is under 3.16 nM. Besides, the IC50 at GPR17 [2] was under 3.16 nM.

Consider `COCCCc1cc(F)c(NS(=O)(=O)c2c[nH]c3cc(Br)ccc23)nc1F` [Compound I-323, 6-bromo-N-[3,6-difluoro-5-(3-methoxypropyl)pyridin-2-yl]-1H-indole-3-sulfonamide], for which the Kb on GPR17 [1] was under 3.16 nM. The IC50 on GPR17 [2] was under 3.16 nM.

For `COc1nc(NS(=O)(=O)c2c[nH]c3cc(Cl)c(Br)cc23)c(F)cc1CC#N` [Compound I-324, 5-bromo-6-chloro-N-[5-(cyanomethyl)-3-fluoro-6-methoxypyridin-2-yl]-1H-indole-3-sulfonamide], the Kb at GPR17 [1] was under 3.16 nM. For the same compound, on GPR17 [2], the IC50 was under 3.16 nM.

On to `COC/C=C/c1cc(F)c(NS(=O)(=O)c2c[nH]c3cc(Br)ccc23)nc1F` [Compound I-325, 6-bromo-N-{3,6-difluoro-5-[(1E)-3-methoxyprop-1-en-1-yl]pyridin-2-yl}-1H-indole-3-sulfonamide], for which, on GPR17 [1], the Kb was under 3.16 nM. For the same compound, the IC50 at GPR17 [2] was under 3.16 nM.

For `Cc1c(Br)ccc2c(S(=O)(=O)Nc3ncc(Cl)cc3F)c[nH]c12` [Compound I-326, 6-bromo-N-(5-chloro-3-fluoropyridin-2-yl)-7-methyl-1H-indole-3-sulfonamide], at GPR17 [1], the Kb is under 3.16 nM. Moreover, on GPR17 [2], the IC50 was 3.16 to 31.6 nM.

In the case of `CC1OC(=O)c2cc(NS(=O)(=O)c3c[nH]c4cc(Cl)ccc34)c(F)cc21` (stereo not shown) [Compound I-327, 6-chloro-N-(6-fluoro-1-methyl-3-oxo-1,3-dihydro-2-benzofuran-5-yl)-1H-indole-3-sulfonamide], the Kb at GPR17 [1] is under 3.16 nM. Moreover, the IC50 at GPR17 [2] was under 3.16 nM.
